ChEMBL document CHEMBL1144434, “Structure-activity relationships within a series of caspase inhibitors. Part 2: Heterocyclic warheads” (Bioorg Med Chem Lett, 2005)

Tests used:
Caspase-1 (Mus musculus) = target: T1, Caspase-1 (Mus musculus) (UniProt P29452); experiment: Binding affinity against mouse Caspase-1
T1 sequence (whole entry): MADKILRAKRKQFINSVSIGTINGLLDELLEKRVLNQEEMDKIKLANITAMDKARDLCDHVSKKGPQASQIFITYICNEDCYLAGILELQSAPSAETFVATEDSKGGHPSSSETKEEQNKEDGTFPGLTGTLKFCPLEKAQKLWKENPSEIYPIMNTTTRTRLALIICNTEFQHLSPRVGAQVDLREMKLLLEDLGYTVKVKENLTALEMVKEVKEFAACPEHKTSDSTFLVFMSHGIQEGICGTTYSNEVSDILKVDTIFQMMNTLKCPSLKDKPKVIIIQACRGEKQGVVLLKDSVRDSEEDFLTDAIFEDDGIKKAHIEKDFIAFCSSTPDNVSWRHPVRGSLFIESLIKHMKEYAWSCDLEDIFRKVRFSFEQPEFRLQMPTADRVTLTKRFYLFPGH

Caspase-3 (Homo sapiens) = target: T2, Caspase-3 (Homo sapiens) (UniProt P42574); experiment: Binding affinity against Caspase-3
T2 sequence (whole entry): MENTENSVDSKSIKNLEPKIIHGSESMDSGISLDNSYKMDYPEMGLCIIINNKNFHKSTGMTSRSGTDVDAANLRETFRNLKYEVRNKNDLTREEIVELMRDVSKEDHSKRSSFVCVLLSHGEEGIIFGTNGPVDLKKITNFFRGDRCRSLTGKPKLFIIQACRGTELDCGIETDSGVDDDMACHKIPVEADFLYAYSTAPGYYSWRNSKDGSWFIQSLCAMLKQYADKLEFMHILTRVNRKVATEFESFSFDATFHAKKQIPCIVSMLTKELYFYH

Caspase-8 (Homo sapiens) = Caspase-8 (Homo sapiens) (UniProt Q14790); experiment: Binding affinity against Caspase-8
Chain of Caspase-8 (Homo sapiens) (Q14790 217-374 limits assumed): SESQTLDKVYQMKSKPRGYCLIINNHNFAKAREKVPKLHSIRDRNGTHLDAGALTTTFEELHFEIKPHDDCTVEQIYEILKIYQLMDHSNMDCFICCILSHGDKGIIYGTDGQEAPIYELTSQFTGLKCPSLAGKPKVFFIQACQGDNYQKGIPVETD
Chain of Caspase-8 (Homo sapiens) (Q14790 385-479 limits assumed): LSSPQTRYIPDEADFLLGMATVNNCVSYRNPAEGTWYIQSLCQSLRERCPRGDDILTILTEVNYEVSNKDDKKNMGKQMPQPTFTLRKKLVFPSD

Jurkat = experiment: Inhibitory concentration for cellular activity in jurkat assay; format: functional, cell-based; details: Homo sapiens
Caspase-6 (Homo sapiens) = target: T3, Caspase-6 (Homo sapiens) (UniProt P55212); experiment: Binding affinity against Caspase-6
T3 sequence (whole entry): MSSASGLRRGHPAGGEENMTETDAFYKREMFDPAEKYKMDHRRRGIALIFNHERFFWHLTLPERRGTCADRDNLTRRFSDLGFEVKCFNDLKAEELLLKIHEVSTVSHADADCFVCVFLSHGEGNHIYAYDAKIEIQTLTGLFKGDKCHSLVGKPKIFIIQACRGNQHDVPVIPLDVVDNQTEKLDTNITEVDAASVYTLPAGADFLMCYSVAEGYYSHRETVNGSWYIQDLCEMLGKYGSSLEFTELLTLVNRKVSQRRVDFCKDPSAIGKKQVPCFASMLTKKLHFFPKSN

Row | SMILES | k3/ki (Caspase-1 (Mus musculus)) | k3/ki (Caspase-3 (Homo sapiens)) | k3/ki (Caspase-8 (Homo sapiens)) | IC50 (Jurkat) [µM] | k3/ki (Caspase-6 (Homo sapiens))
1 | CC(C)[C@H](NC(=O)COc1cccc2ccccc12)C(=O)N[C@@H](CC(=O)O)C(=O)CSc1ncc[nH]1 | 173 1/m/s | 850 1/m/s | 0 1/m/s | > 200 | 22 1/m/s
2 | CC(C)[C@H](NC(=O)COc1cccc2ccccc12)C(=O)N[C@@H](CC(=O)O)C(=O)CSc1nc[nH]n1 | 115 1/m/s | 401 1/m/s | 0 1/m/s | > 200 | 17 1/m/s
3 | CC(C)[C@H](NC(=O)COc1cccc2ccccc12)C(=O)N[C@@H](CC(=O)O)C(=O)CSc1nc2ccccc2[nH]1 | 168 1/m/s | 1770 1/m/s | 10 1/m/s | > 200 | 25 1/m/s
4 | CC(C)[C@H](NC(=O)COc1cccc2ccccc12)C(=O)N[C@@H](CC(=O)O)C(=O)COc1ccc2ccccc2n1 | 67 1/m/s | 979 1/m/s | 9 1/m/s | > 200 | 0 1/m/s
5 | CC(C)[C@H](NC(=O)COc1cccc2ccccc12)C(=O)N[C@@H](CC(=O)O)C(=O)COn1nnc2ccccc21 | 28300 1/m/s | 121000 1/m/s | 14500 1/m/s | > 200 | 8530 1/m/s
6 | Cc1cc(C)nc(SCC(=O)[C@H](CC(=O)O)NC(=O)[C@@H](NC(=O)COc2cccc3ccccc23)C(C)C)n1 | 950 1/m/s | 7130 1/m/s | 120 1/m/s | > 200 | 656 1/m/s
7 | CC(C)[C@H](NC(=O)COc1cccc2ccccc12)C(=O)N[C@@H](CC(=O)O)C(=O)CSc1nc(-c2ccccc2)c(-c2ccccc2)o1 | 200 1/m/s | 2010 1/m/s | 218 1/m/s | > 200 | 0 1/m/s
8 | CC(C)[C@H](NC(=O)COc1cccc2ccccc12)C(=O)N[C@@H](CC(=O)O)C(=O)CSc1nccn1C | 1200 1/m/s | 11500 1/m/s | 212 1/m/s | > 200 | 570 1/m/s
9 | Cc1cc(C)nc(OCC(=O)[C@H](CC(=O)O)NC(=O)[C@@H](NC(=O)COc2cccc3ccccc23)C(C)C)n1 | 10 1/m/s | 283 1/m/s | 0 1/m/s |  | 0 1/m/s
10 | CC(C)[C@H](NC(=O)COc1cccc2ccccc12)C(=O)N[C@@H](CC(=O)O)C(=O)COc1nccc(C(F)(F)F)n1 | 0 1/m/s | 0 1/m/s | 0 1/m/s | > 200 | 0 1/m/s
11 | CC(C)[C@H](NC(=O)COc1cccc2ccccc12)C(=O)N[C@@H](CC(=O)O)C(=O)COc1nc2ccccc2[nH]1 | 41 1/m/s | 958 1/m/s | 2 1/m/s | > 200 | 0 1/m/s
12 | CC(C)[C@H](NC(=O)COc1cccc2ccccc12)C(=O)N[C@@H](CC(=O)O)C(=O)CSc1nc2ccccc2s1 | 202 1/m/s | 3570 1/m/s | 0 1/m/s | > 200 | 0 1/m/s
13 | CC(C)[C@H](NC(=O)COc1cccc2ccccc12)C(=O)N[C@@H](CC(=O)O)C(=O)COc1cc2ccccc2cn1 | 693 1/m/s | 3350 1/m/s | 8 1/m/s | > 200 | 96 1/m/s
14 | CC(C)c1cc(OCC(=O)[C@H](CC(=O)O)NC(=O)[C@@H](NC(=O)COc2cccc3ccccc23)C(C)C)no1 | 3670 1/m/s | 21800 1/m/s | 279 1/m/s | > 200 | 220 1/m/s
15 | CC(C)[C@H](NC(=O)COc1cccc2ccccc12)C(=O)N[C@@H](CC(=O)O)C(=O)CSc1ccccn1 | 0 1/m/s | 348 1/m/s | 0 1/m/s |  | 0 1/m/s
16 | CC(C)[C@H](NC(=O)COc1cccc2ccccc12)C(=O)N[C@@H](CC(=O)O)C(=O)COc1cc(C(F)(F)F)ncn1 | 479 1/m/s | 1750 1/m/s | 0 1/m/s | > 200 | 156 1/m/s
17 | CC(C)[C@H](NC(=O)COc1cccc2ccccc12)C(=O)N[C@@H](CC(=O)O)C(=O)CSc1nncn1C | 180 1/m/s | 2260 1/m/s | 293 1/m/s | > 200 | 221 1/m/s
18 | CC(C)[C@H](NC(=O)COc1cccc2ccccc12)C(=O)N[C@@H](CC(=O)O)C(=O)CSc1nnnn1C | 3630 1/m/s | 34400 1/m/s | 6510 1/m/s | > 200 | 2150 1/m/s

The remaining lines, values ahead:

Row | k3/ki (Caspase-1 (Mus musculus)) | k3/ki (Caspase-3 (Homo sapiens)) | k3/ki (Caspase-8 (Homo sapiens)) | IC50 (Jurkat) [µM] | k3/ki (Caspase-6 (Homo sapiens)) | SMILES
19 | 0 1/m/s | 0 1/m/s | 0 1/m/s | > 200 |  | CC(C)[C@H](NC(=O)COc1cccc2ccccc12)C(=O)N[C@@H](CC(=O)O)C(=O)CSc1nc2ccccc2o1
20 | 138 1/m/s | 733 1/m/s | 8 1/m/s | > 200 | 5 1/m/s | CC(C)[C@H](NC(=O)COc1cccc2ccccc12)C(=O)N[C@@H](CC(=O)O)C(=O)COc1ccccn1
21 | 186 1/m/s | 2300 1/m/s | 231 1/m/s | > 200 | 228 1/m/s | CC(C)[C@H](NC(=O)COc1cccc2ccccc12)C(=O)N[C@@H](CC(=O)O)C(=O)CSC1=NCCS1
22 | 42500 1/m/s | 144000 1/m/s | 6340 1/m/s | 71 | 5800 1/m/s | COC(=O)c1cc(OCC(=O)[C@H](CC(=O)O)NC(=O)[C@@H](NC(=O)COc2cccc3ccccc23)C(C)C)no1
23 | 273 1/m/s | 906 1/m/s | 107 1/m/s | 161 | 143 1/m/s | CC(C)[C@H](NC(=O)COc1cccc2ccccc12)C(=O)N[C@@H](CC(=O)O)C(=O)COc1[nH]cnc2nncc1-2
24 | 1330 1/m/s | 7480 1/m/s | 367 1/m/s | > 200 | 903 1/m/s | Cc1cc(OCC(=O)[C@H](CC(=O)O)NC(=O)[C@@H](NC(=O)COc2cccc3ccccc23)C(C)C)nc(C)n1
25 | 199 1/m/s | 1390 1/m/s | 0 1/m/s | > 200 | 22 1/m/s | CC(C)[C@H](NC(=O)COc1cccc2ccccc12)C(=O)N[C@@H](CC(=O)O)C(=O)CSc1nc(-c2ccccc2)c(-c2ccccc2)[nH]1
26 | 45400 1/m/s | 169000 1/m/s | 18200 1/m/s | 137 | 44000 1/m/s | CC(C)[C@H](NC(=O)COc1cccc2ccccc12)C(=O)N[C@@H](CC(=O)O)C(=O)COn1nnc2ccccc2c1=O
27 | 9400 1/m/s | 35500 1/m/s | 295 1/m/s | 46 | 509 1/m/s | CC(C)[C@H](NC(=O)COc1cccc2ccccc12)C(=O)N[C@@H](CC(=O)O)C(=O)COc1cc(C(F)(F)F)n(C)n1
28 | 1260 1/m/s | 4360 1/m/s | 39 1/m/s | > 200 | 140 1/m/s | CC(C)[C@H](NC(=O)COc1cccc2ccccc12)C(=O)N[C@@H](CC(=O)O)C(=O)COc1cccc2cccnc12
29 | 83 1/m/s | 343 1/m/s | 4 1/m/s | > 200 | 0 1/m/s | CC(C)[C@H](NC(=O)COc1cccc2ccccc12)C(=O)N[C@@H](CC(=O)O)C(=O)COc1ncnc2ccccc12
30 | 0 1/m/s | 0 1/m/s | 0 1/m/s | > 200 | 0 1/m/s | CC(C)[C@H](NC(=O)COc1cccc2ccccc12)C(=O)N[C@@H](CC(=O)O)C(=O)COc1ccncn1
31 | 7570 1/m/s | 71100 1/m/s | 2270 1/m/s | 28 | 23900 1/m/s | CC(C)[C@H](NC(=O)COc1cccc2ccccc12)C(=O)N[C@@H](CC(=O)O)C(=O)COc1cc(C(F)(F)F)nn1-c1ccccc1
32 | 360 1/m/s | 1310 1/m/s | 177 1/m/s | 106 | 462 1/m/s | CC(C)[C@H](NC(=O)COc1cccc2ccccc12)C(=O)N[C@@H](CC(=O)O)C(=O)COc1nccc2ccccc12
33 | 24800 1/m/s | 114000 1/m/s | 3200 1/m/s | 37 | 5150 1/m/s | CC(C)[C@H](NC(=O)COc1cccc2ccccc12)C(=O)N[C@@H](CC(=O)O)C(=O)COc1ccnc(C(F)(F)F)n1
34 | 280 1/m/s | 4800 1/m/s | 276 1/m/s | 150 | 110 1/m/s | CC(C)[C@H](NC(=O)COc1cccc2ccccc12)C(=O)N[C@@H](CC(=O)O)C(=O)CSc1nnc(-c2ccccc2)o1
35 | 5480 1/m/s | 5240 1/m/s | 0 1/m/s | 190 | 83 1/m/s | Cc1nnc(SCC(=O)[C@H](CC(=O)O)NC(=O)[C@@H](NC(=O)COc2cccc3ccccc23)C(C)C)s1
36 | 0 1/m/s | 0 1/m/s | 0 1/m/s | 166 | 0 1/m/s | CC(C)[C@H](NC(=O)COc1cccc2ccccc12)C(=O)N[C@@H](CC(=O)O)C(=O)COc1cncc2ccccc12
